In patent publication US20020127228A1, “PGT and apoptosis” (WELFIDE CORPORATION, priority 1998, published 2002):

Assays:
[1] = tested on: differentiated PC12 cells; test: Suppression of apoptosis in differentiated PC12 cells after NGF withdrawal, TUNEL staining; assay type: cell-based, rat; conditions: for TUNEL-positive cells (%): NGF withdrawal
Description: (1) After growing rat adrenal pheochromocytoma PC12 cells (obtained by: ATCC; importer: Dainippon Pharmaceutical) with RPMI1640 containing 10 ml/l heat-inactivated horse serum and 5 ml/l heat-inactivated fetal calf serum, culturing was performed with RPMI1640 containing mouse β NGF (100 ng/ml), N2 supplement, and TIP (5 μg/ml transferrin, 5 μg/ml insulin, and 10 ng/ml progesterone). Differentiation to neuron-like cells was performed.
(2) Differentiated PC12 cells were washed with Neurobasal culture medium. After replacing the culture medium with RPMI1640 not containing β NGF, N2 supplement, and TIP, mouse β NGF antibodies (final concentration: 50 ng/ml) were added. By culturing for 24 hrs, apoptosis was induced.
0.01-1 μM) to fresh culture medium during medium replacement and culturing was performed for the same amount of time. As a negative control, a solvent (ethanol) alone was added in the same manner and culturing was performed for the same period of time. Apoptosis detection was performed by Hoechst 33342 staining (at 1 mM with a reaction in 2 minutes at room temperature) after fixation (room temperature for 30 mins) of cells with a 1% glutaraldehyde solution. Observation was made from 5 arbitrary visual fields using a fluorescence microscope. Total cell and apoptotic cells were counted, and incident of apoptosis was calculated.
As regards the apoptosis-suppressing activity of PGE1 in nerve neurons, the manners other than TUNEL staining for detection of apoptosis were in accordance with ones in Experiment 1. The results are indicated in Table2.

NRK52E cells [2] = test: Apoptosis induced by NO donor NOC12 in NRK52E kidney cells; assay type: cell-based, rat; conditions: NOC12 0.4 mM, 24 hrs, n 5
Description: (§1) 1) Apoptosis was induced by NO (nitrogen monoxide) in kidney cells. NRK52E cells, which are established from a rat renal tubule epithelial cell line, mainly derived from distal were cultured for 24 hours with a chamber slide that was coated with type-I collagen. Afterwards, the cultured medium was changed to a serum-free medium, and apoptosis was induced by addition of NOC12 (0.4 mM) or S-nitroso L-glutathione (GSNO: 1 mM), which are NO donors.
(§2) 4) Inhibitory effect of PGE1 to the induction of apoptosis in kidney cells was investigated PGE1 was added simultaneously with the addition of a NO donor to a final concentration of 1 or 10 μM. After 24 hrs, cells were fixed with a 1% glutaraldehyde solution and stained with Hoechst 33342. Three visual fields were selected arbitrarily per slide, and the ratio of the cells count where nuclear fragmentation and condensation appeared was calculated with respect to the total cells in the field (magnification: 400x). The n was 5.

[3] = Hypotensive effect in anesthetized normal rats, mean blood pressure; assay type: in vivo, rat; set-up: Decrease in blood pressure: unit not given here; conditions: 100 μg/kg body weight into caudal artery, mean blood pressure before and after, n 3
Description: 2) The hypotensive effect of the test drugs was examined. After anesthetizing normal rats (male, body weight of about 300 g) with intraperitoneal administration of Nembutal, the dorsal region was fixed. Next, a cannula was inserted in the carotid artery and blood pressure was measured through a transducer (Nihon Kohden Corporation); simultaneous recording was made in combination with a polygraph (Nihon Kohden Corporation). After dissolving the test drugs in ethanol, and diluted (x200) with saline. Administration was given in the caudal artery in a dose of 100 μg/kg body weight. The mean blood pressure (MBP) was measured. The decrease in blood pressure was calculated from the measured values before and after administration. The n was 3 per group.

NRK52E cells [4] = test: Apoptosis induced by NO donor GSNO in NRK52E kidney cells; assay type: cell-based, rat
Description: as §1, §2
5) The relationship between PGT inhibitors and kidney cell apoptosis induced by GSNO was examined. With a final concentration of BrCG, which is a PGT inhibitor, of 60 μM, manners other than simultaneous addition with GSNO and PGE1 were in accordance with the aforementioned ones in 4). The PGE1 final concentration was 1 μM. The n was 3.
1) Drugs having suppressing activity on apoptosis inducted in kidney cells by an NO donor were investigated. PGK1 and bicyclo PGE2 were used as test drugs, but other manners were in accordance with Experiment 8. The final concentration of the test drugs was 1 μM. The n was 5.
2) It was investigated the effects of a PGT inhibitor on the apoptosis-suppressing activity of PGK1 and bicyclo PGE2 in kidney cells. With a final concentration of BrCG, which is a PGT inhibitor, of 60 μM, manners other than simultaneous addition of GSNO and test drugs were in accordance with the aforementioned methods in 1). The n was 4.

PGT = target: T1, PGT (Rattus norvegicus, UniProt Q00910); test: Uptake of tritium-labelled PGE1 into differentiated PC12 cells through PGT; assay type: cell-based; conditions: tritium-labelled PGE1 0.1 μM, mean ± SEM
T1 construct: endogenous in cells; host or cells: differentiated PC12 cells
Description: 1) Differentiated PC12 cells and tritium-labelled PGE1 (added concentration: 0.1 μM) were subjected to 10 mins of incubation at 37° C. Afterwards, the cells were washed with ice-cold phosphate buffered saline containing 5 g/l of bovine serum albumin and next washed with ice-cold phosphate buffered saline. Then, radioactivity was measured. The amount of PGE1 uptake into PC12 cells was calculated.
2) Bromcresol green (hereinafter noted as “BrCG”), which is a PGT inhibitor, was placed together in the culture medium at the addition of PGE1. Afterwards, treatment was conducted in the same manner as mentioned in 1).
3) The antisense oligonucleotide specific to PGT cDNA was designed as follows:
Moreover, said antisense was thioate modified. Using Lipofectin (Gibco), PC12 underwent transfection during 2 days prior to the addition of PGE1. Afterwards, treatment was conducted in the same manner as mentioned in 1).

CCCCC[C@H](O)/C=C/[C@H]1[C@H](O)CC(=O)[C@@H]1CCCCCCC(=O)O [PGE1, prostaglandin E1]
Effect on cell apoptosis (in words) ([1]; PGE1 0.1 μM and 1 μM): suppressed cell apoptosis
TUNEL-positive cells (%) ([1]; PGE1 0.1 μM): 13.80 ± 0.75%
TUNEL-positive cells (%) ([1]; PGE1 1 μM): 8.10 ± 1.57%
Incidence of apoptosis (%) (NRK52E cells [2]; PGE1 1 μM): 11 ± 2 %
Incidence of apoptosis (%) (NRK52E cells [2]; PGE1 10 μM): 6 ± 1 %
Decrease in blood pressure [3]: −55
Effect on apoptosis in kidney cells (in words) (NRK52E cells [4]; NO donor GSNO): suppressed induction of apoptosis in kidney cells
Incidence of apoptosis (%) (NRK52E cells [4]; Table 11, GSNO 1 mM, PGE1 1 μM, 24 hrs, n 5): 10 ± 2 %
Incidence of apoptosis (%) (NRK52E cells [4]; Table 11, GSNO 1 mM, PGE1 10 μM, 24 hrs, n 5): 11 ± 3 %
Incidence of apoptosis (%) (NRK52E cells [4]; Table 12, GSNO, PGE1 1 μM, n 3): 8 ± 2%
Amount of PGE1 uptake (PGT; 10 mins at 37° C., no BrCG (Table 3)): 73 ± 11 fmol/mg protein/10 mins
Amount of PGE1 uptake (PGT; no antisense (Table 4)): 78 ± 11 fmol/mg protein/10 mins
